Among the data in patent US10450358 (dated 2019) are not cleaved and cleaved bond values, retold here.

A short description of data set [1]: Pichia pastoris GS115 expression culture supernatant (methanol induction), purified protein. The following applies: 28° C., up to 72 hours.
A short description of data set [2]: Pichia pastoris GS115 expression culture supernatant (BMMY medium, methanol induction), purified protein. Particulars: 28° C., up to 72 hours.

Regarding “AIAEPAMIAECKTRTEVFEISRRLIDPTNANFLVWPPCVEVQRCSGCCNNRNVQCRPTQVQLRPVQVRKIEIVRKKPIFKKATVTLEDHLACKCEAVAAARPVA”, in data set [1], the not cleaved entry is “SDS-PAGE result showed that PDGF-M2 is a single band”.
The same measure, in the same setting: the same measure for “TIAEPAMIAECKTRTEVFEISRRLIDPTNANFLVWPPCVEVQRCSGCCNNRNVQCRPTQVQLRPVQVRKIEIVRKKPIFKKATVTLEDHLACKCEAVAAARPVA”: “only single band could be detected after the two mutants were reduced (WB)”.
In the case of “TIAEPAMIAECKTRTEVFEISRRLIDRTNANFLVWPPCVEVQRCSGCCNNRNVQCRPTQVQLRPVQVRKIEIVRKKPIFKKATVTLEDHLACKCETVAAARPVT”, the cleaved bond result in data set [2] is recorded as “Arg32-Thr33”.
